Measurements as given in ChEMBL document CHEMBL1275405, “Population pharmacokinetics of levofloxacin, gatifloxacin, and moxifloxacin in adults with pulmonary tuberculosis” (Antimicrob Agents Chemother, 2008).
In brackets after ≈: the same amount, converted by molar mass.

Columns and labels:
clinical [1] = conditions: human, in vivo, po, 400 mg/day
Description: Tmax in tuberculosis patient at 400 mg/day, po administered for 7 days by HPLC

[2] = test system: Mycobacterium tuberculosis; assay: microbe, parasite or virus in culture; conditions: 168 h
Description: Antimicrobial activity against Mycobacterium tuberculosis infected in patient at 400 mg/day, po administered for 7 days by HPLC

[3] = Tmax in tuberculosis patient at […], po administered for 7 days by HPLC; assay type: ADME, organism-based; conditions: human, in vivo
[4] = test system: Mycobacterium tuberculosis; assay type: functional; conditions: 168 h
[5] = Ratio of fAUC in tuberculosis patient at 1000 mg/day, po administered for 7 days to MIC for Mycobacterium tuberculosis; assay type: functional
[6] = Clearance in tuberculosis patient at 1000 mg/day, po administered for 7 days measured after 24 hrs by HPLC; assay type: ADME, organism-based; conditions: human, in vivo
clinical [7] = conditions: human, in vivo, po, 1000 mg/day
Description: Cmax in tuberculosis patient at 1000 mg/day, po administered for 7 days by HPLC

Row | SMILES | Tmax at 168 h (clinical [1]) | MIC [2] | Tmax [3] | MIC [4] | RatioAUC/MIC [5] | CL/F [6] | Cmax at 168 h (clinical [7])
1 | COc1c(N2CCNC(C)C2)c(F)cc2c(=O)c(C(=O)O)cn(C3CC3)c12 (centres undefined) [GATIFLOXACIN] | 2 h | 0.2 µg/mL (≈ 0.533 µM) | 8 h | – | – | – | –
2 | COc1c(N2C[C@@H]3CCCN[C@@H]3C2)c(F)cc2c(=O)c(C(=O)O)cn(C3CC3)c12 [MOXIFLOXACIN] | 2 h | 0.5 µg/mL (≈ 1.25 µM) | – | – | – | – | –
3 | C[C@H]1COc2c(N3CCN(C)CC3)c(F)cc3c(=O)c(C(=O)O)cn1c23.C[C@H]1COc2c(N3CCN(C)CC3)c(F)cc3c(=O)c(C(=O)O)cn1c23.O [LEVOFLOXACIN] | – | – | – | 0.5 µg/mL | 187.67 | 79 mL/min | 9000 ng/mL
